According to patent publication US20060223841A1 (priority 2003, published 2006):

Assays:
[1] = Stability under grinding by hand in mortar and pestle (XRD); conditions: grinding by hand in mortar and pestle for one minute
[2] = Stability of ratio of the mixture of desloratadine polymorphic forms on storage (XRPD); assay type: physicochemical
Excerpt: Copper radiation of 1.5418 Å was used.
In all cases samples were packed in polyethylene and store above conditions.

[3] = Solubility of desloratadine; assay type: physicochemical
[4] = 25° C., 60% RH, 1 month (4 weeks)
[5] = 25° C., 60% RH, 2 months (8 weeks)
[6] = 25° C., 60% RH, 3 months (12 weeks)
[7] = 25° C., 60% RH, 6 months (24 weeks)
[8] = 40° C., 75% RH, 1 month (4 weeks)
[9] = 40° C., 75% RH, 2 months (8 weeks)
[10] = 40° C., 75% RH, 3 months (12 weeks)
[11] = 40° C., 75% RH, 6 months (24 weeks)

Row | SMILES | change in the XRD pattern after grinding [1] | Form 1 (%) ([2]; 25° C., 60% RH, 0 week) | Form 2 (%) ([2]; 25° C., 60% RH, 0 week) | Form 1 (%) [2, 4] | Form 2 (%) [2, 4] | Form 1 (%) ([2]; 25° C., 60% RH, 1 week) | Form 2 (%) ([2]; 25° C., 60% RH, 1 week) | Form 1 (%) [2, 5] | Form 2 (%) [2, 5] | Form 1 (%) ([2]; 25° C., 60% RH, 2 weeks) | Form 2 (%) ([2]; 25° C., 60% RH, 2 weeks) | Form 1 (%) [2, 6] | Form 2 (%) [2, 6] | Form 1 (%) ([2]; 40° C., 75% RH, 0 week) | Form 2 (%) ([2]; 40° C., 75% RH, 0 week) | Form 1 (%) [2, 8] | Form 2 (%) [2, 8] | Form 1 (%) ([2]; 40° C., 75% RH, 1 week) | Form 2 (%) ([2]; 40° C., 75% RH, 1 week) | Form 1 (%) [2, 9] | also measured
1 | Clc1ccc2c(c1)CCc1cccnc1C2=C1CCNCC1 [84:16, desloratadine] | do not show any substantial change | – | – | – | – | – | – | – | – | – | – | – | – | – | – | – | – | – | – | – | –
2 | Clc1ccc2c(c1)CCc1cccnc1C2=C1CCNCC1 [75:25, desloratadine] | do not show any substantial change | – | – | – | – | – | – | – | – | – | – | – | – | – | – | – | – | – | – | – | –
3 | Clc1ccc2c(c1)CCc1cccnc1C2=C1CCNCC1 [Form I, desloratadine, reference compound] | stable | – | – | – | – | – | – | – | – | – | – | – | – | – | – | – | – | – | – | – | –
4 | Clc1ccc2c(c1)CCc1cccnc1C2=C1CCNCC1 [Example 3 of Stability Tests, desloratadine] | – | 74% | 26% | 79% | 21% | 79% | 21% | 75% | 25% | 74% | 26% | 74% | 26% | 74% | 26% | 78% | 22% | 77% | 23% | 78% | Form 1 (%) [2, 7]: 77%; Form 2 (%) [2, 7]: 23%; Form 2 (%) [2, 9]: 22%; Form 1 (%) ([2]; 40° C., 75% RH, 2 weeks): 81%; Form 2 (%) ([2]; 40° C., 75% RH, 2 weeks): 19%; Form 1 (%) [2, 10]: 75%; Form 2 (%) [2, 10]: 25%; Form 1 (%) [2, 11]: 75%; Form 2 (%) [2, 11]: 25%
5 | Clc1ccc2c(c1)CCc1cccnc1C2=C1CCNCC1 [Example 4 of Stability Tests, desloratadine] | – | 76% | 24% | 82% | 18% | 87% | 13% | 86% | 14% | 80% | 20% | 81% | 19% | 76% | 24% | 88% | 12% | 76% | 24% | 85% | Form 1 (%) [2, 7]: 84%; Form 2 (%) [2, 7]: 16%; Form 2 (%) [2, 9]: 15%; Form 1 (%) ([2]; 40° C., 75% RH, 2 weeks): 82%; Form 2 (%) ([2]; 40° C., 75% RH, 2 weeks): 18%; Form 1 (%) [2, 10]: 82%; Form 2 (%) [2, 10]: 18%; Form 1 (%) [2, 11]: 82%; Form 2 (%) [2, 11]: 18%
6 | Clc1ccc2c(c1)CCc1cccnc1C2=C1CCNCC1 [25:75, desloratadine] | do not show any substantial change | – | – | – | – | – | – | – | – | – | – | – | – | – | – | – | – | – | – | – | –
7 | Clc1ccc2c(c1)CCc1cccnc1C2=C1CCNCC1 [Form II, desloratadine, reference compound] | stable | – | – | – | – | – | – | – | – | – | – | – | – | – | – | – | – | – | – | – | –
8 | Clc1ccc2c(c1)CCc1cccnc1C2=C1CCNCC1 [Example 2 of Stability Tests, desloratadine] | – | 62% | 38% | 66% | 34% | 65% | 35% | 67% | 33% | 61% | 39% | 66% | 34% | 62% | 38% | 65% | 35% | 63% | 37% | 65% | Form 2 (%) [2, 9]: 35%; Form 1 (%) ([2]; 40° C., 75% RH, 2 weeks): 64%; Form 2 (%) ([2]; 40° C., 75% RH, 2 weeks): 36%
9 | Clc1ccc2c(c1)CCc1cccnc1C2=C1CCNCC1 [50:50, desloratadine] | do not show any substantial change | – | – | – | – | – | – | – | – | – | – | – | – | – | – | – | – | – | – | – | –
10 | Clc1ccc2c(c1)CCc1cccnc1C2=C1CCNCC1 [desloratadine, 8-chloro-6,11-dihydro-11-(4-piperidylidene)-5H-benzo[5,6] cyclohepta[1,2-b]pyridine] | – | – | – | – | – | – | – | – | – | – | – | – | – | – | – | – | – | – | – | – | solubility [3]: very low
11 | Clc1ccc2c(c1)CCc1cccnc1C2=C1CCNCC1 [Example 1 of Stability Tests, desloratadine] | – | 57% | 43% | 55% | 45% | 59% | 41% | 63% | 37% | 53% | 47% | 52% | 48% | 57% | 43% | 50% | 50% | 46% | 54% | 39% | Form 2 (%) [2, 9]: 61%; Form 1 (%) ([2]; 40° C., 75% RH, 2 weeks): 43%; Form 2 (%) ([2]; 40° C., 75% RH, 2 weeks): 57%
